Reference: PMC9381536, “Non-apoptotic cell death induction via sapogenin based supramolecular particles” (Scientific Reports, 2022)

Legend:
EEA1 = EEA1 immunofluorescence; assay type: cell-based, Human; details: HCC1937, AG-08 16 h
Protocol: Figure 2 AG-08 is related with endosomal pathway. (A) After pre-treatment with 20 µM pitstop II, 0.5 mM methyl-β-cyclodextrin (MβC), 80 µM dynasore, 20 µM cytochalasin d (Cyto D) or 20 µM chlorpromazine (CPZ) for 1 h, HCC1937 cells were treated with 8 µM AG-08 for 24 h. Then cell viability was determined by using WST-1. Reported values were normalized on cells treated with only AG-08. Error bars are the standard deviations (n = 3). p-values were calculated with respect to AG-08 treated cells by two-tailed equal variance Student’s t-test (*p < 0.05, ***p < 0.001, ****p < 0.0001) (B) HCC1937 cells were treated with brefeldin A (Bref A) for 1 h and then treated with 8 µM AG-08 for 24 h. Error bars represent standard deviations (n = 3). p-values were calculated with respect to AG-08-treated cells (*p < 0.05, **p < 0.005, ***p < 0.001). (C) Following AG-08 treatment for 16 h, EEA1 proteins were stained using the anti-EEA1 antibody in HCC1937 cells (scale bar = 25 µm).
Cells were grown on glass coverslips and treated with AG-08. At the end of treatments, cells were washed twice with ice-cold PBS and fixed with 4% paraformaldehyde in PBS for 30 min at 4 °C. After washing 6 times with PBS, cells were permeabilized and blocked with 0.01% saponin and 0,01% BSA in PBS. […] Mounted samples were analyzed by fluorescence microscopy (Olympus IX70, Japan).

Calnexin = Calnexin immunofluorescence; assay type: cell-based; details: AG-08 treated cells
From the text: Figure 3 mRNA microarray analysis was used to identify differentially expressed genes via AG-08 treatment. (A) Heatmap representing the expressions of 193 genes with significant different expression in AG-08 treated cells compared with control. Heatmap was generated by GraphPad Prism version 8 (https://www.graphpad.com/scientific-software/prism/). (B) Protein–protein network analysis was formed via STRING. The thickness of the connecting lines indicates the strength of data support for physical and/or functional associations. (C) Pathway enrichment was determined using GO, KEGG, and Reactome pathway analysis. […] Size of circle represents the significance of enrichment. (D) The protein levels of CHOP were determined via IB. 0.5 µg/ml tunicamycin (Tun) was used as positive control. The experiments were repeated three times independently; with one representative result shown. (E) mRNA level of the CHOP was investigated using quantitative PCR (q-RTPCR). Error bars represent standard error (s.e.). p-values were calculated with respect to vehicle-treated cells by one-way Anova test. (**p < 0.005, ****p < 0.0001). (F) The expression and localization of Calnexin protein were evaluated using immunofluorescence via anti-Calnexin antibody (scale bar 25 µm).
Cells were grown on glass coverslips and treated with AG-08. […] Mounted samples were analyzed by fluorescence microscopy (Olympus IX70, Japan).

HCC1937 cells = experiment: Cell viability with Tween 20 blocking particle formation; assay type: cell-based, Human; details: HCC1937, 24 h
Protocol: Figure 1 AG-08 mediated cytotoxicity relies on the supramolecular structures. (A) Structure of AG-08. (B) The scanning transmission electron micrograph of 16 µM AG-08 in PBS. Figure is a representative image of stained sample with uranyl acetate (5683 × magnification; scale bar 600 nm). (C) After 3 h incubation of Nile red solution with AG-08 or AG, fluorescence intensity of Nile red was measured. (D) AG-08, Staurosporine (Sta) or vehicle samples prepared in the cell condition medium was filtrated by 220 nm filter and HCC1937 cells were exposed to the filtrates. After 24 h, the viability of cells was measured and represented as a percentage of that of the vehicle control. The error bars represent mean value ± s.d. (n = 3). *p < 0.05, **p < 0.005, ***p < 0.001. […] Cell viability was detected after 24 h incubation. […]
To verify that the activity of AG-08 arises from its supramolecular structures, freshly prepared AG-08 solutions were filtered using 220 nm-filters to remove AG-08 supramolecular particles from medium, and the filtrates were analyzed for their cytotoxicity. […]
Figure 5 The cytotoxic activity of analogs depends on particle formation like AG-08. […] The level of released LDH was calculated as fold change relative to vehicle. […] After 24 h, cell viability was measured. […] Cell viability after 24 h was measured. […]

HCC1937 = test system: HCC1937; parameters: method as in PMID 33136369; details: cited from earlier work
A549 = test system: A549; parameters: method as in PMID 33136369; details: cited from earlier work
[1] = Measurement of particle diameter via Zeta Sizer; assay type: physicochemical; details: PBS, DLS
Protocol: AG-08 was dissolved in DMSO a 1000-fold concentrated stock and added into the filtered PBS. Then particle diameter was immediately measured via zeta-sizer (DLS–Particulate Systems). Measurement was repeated in triplicate.

Cc1ccc(S(=O)(=O)OC2CCC3(C)C4=CCC5(C)C(C6(C)CCC(C(C)(C)O)O6)C(O)CC5(C)C4C=CC3C2(C)C)cc1 (stereo not shown) [AG-08]
EEA1 positive vesicles (EEA1): dramatic decrease | intensity of calnexin staining (Calnexin): significantly increased | cell death in presence of Tween 20 (1:40,000) (HCC1937 cells): inhibited | IC50 (HCC1937): 3.81 µM | IC50 (A549): 2.3 µM | Diameter of supramolecular structures (hydrodynamic) [1]: 153.2 ± 4.6 | polydispersity index [1]: 0.218
